Test results published in patent US20090111836A1, “Angular Pyranocoumarins, Process for Preparation and Uses Thereof” (CITY UNIVERSITY OF HONG KONG, priority 2007, published 2009).
“Also recorded” adds a separate entry of the source.

Tests used:
Format in all cases: cell-based, human
HepG2-DR cells [1] = assay: Cell cycle distribution by flow cytometry (doxorubicin-induced G2/M arrest), HepG2-DR; conditions: HepG2-DR; for Cell cycle distribution, G0/G1 / Cell cycle distribution, G2/M / Cell cycle distribution, S / Cell cycle distribution, SubG1: 48 h; for Concentration of test compound that reduced the effective doxorubicin concentration (G2/M arrest) from 50 to 1 μM: combination with doxorubicin
Description: 1.2 Instruments: FACSCAN flow cytometry (Becton Dickinson Immunocytometry Systems, San Jose, Calif.), the obtained data were analyzed using the software of Macintosh CellQuest.
1.3 Cell lines: HepG2, HepG2-DR.
1.4 Drug treatment: HepG2 and HepG2-DR cells were respectively treated with each of cis-DMDCK, cis-DMDBK, trans-DMDCK, trans-DMDBK and doxorubicin for 48 hours, or treated respectively with the combination of doxorubicin and one of cis-DMDCK, cis-DMDBK, trans-DMDCK, trans-DMDBK for 48 hours.
1.5 Treatment and detection of sample cells: after washed twice by ice-cold PBS, the cells were fixed with 70% ethanol at −20° C. overnight. The fixed cells were washed by PBS once and resuspended in 1 mL of PBS containing 100 μg/mL RNAase A and incubated at 37° C. for 30 minutes. Finally, propidium iodide solution (final concentration is 40 μg/mL,) was added to bind with DNA and incubated at room temperature for 5-10 minutes. Cells were analyzed by FACSCAN flow cytometry immediately.

P-gp = assay: Immunoblotting analysis of P-gp expression, HepG2-DR; conditions: 4 μM, 72 hours
Description: Immunoblotting analysis of P-gp expression: cells were treated with 4 μM of cis-DMDCK, 4 μM of cis-DMDBK, 4 μM of trans-DMDCK, or 4 μM of trans-DMDBK for 72 hours. Treated cells were collected and mixed well in ice-cold lysis buffer (50 mM Tris pH7.4, 100 mM NaCl, 2 mM EDTA, 1% sodium deoxycholate, 0.1% SDS, 1% triton X-100, 2 mM PMSF, 1% aprotinin) for 30 minutes and then centrifuged to get the total protein. Protein concentration was determined using Bradford assay. In this experiment, 50 μg total protein was separated by 8% SDS-PAGE and electro-transferred to nitrocellulose membranes. The membrane was blocked by 5% skim milk/0.1% Tween-20/TBS (10 mM Tris pH7.5, 100 mM NaCl), and then incubated with anti-P-pg antibody for 1 hour, followed by horseradish-peroxidase-conjugated secondary antibody for another 1 hour. Protein bands were detected by the ECL method.

K562-DR cells = assay: Reversal of multidrug resistance (fold decrease of anticancer drug IC50), K562-DR; conditions: 4 μM test compound
Description: (§1) Cells and cell culture: cell lines used in the experiments are human hepatoma cell line (HepG2), human leukemia cell line (K562), human epidermoid carcinoma cell line (KB-3-1) and their multidrug resistant sublines HepG2-DR, K562-DR. and KB V1. The culture conditions for all cells are following: at 37° C. and 5% CO2), KB-3-1 and KBV1 were cultured in MEM medium containing 10% fetal bovine serum and 100 U/mL antibiotics; K562, K562-DR, HepG2, HepG2-DR were cultured in RPMI-1640 medium containing 10% fetal bovine serum and 100 U/mL, antibiotics. For maintaining the phenotypic characteristics of multidrug resistance, 1.2 μM and 0.1 μM doxorubicin were respectively added into the mediums of HepG2-DR and K562-DR; 200 ng/mL vinblastine was added into the medium of KBV1. Drug resistant cells were grown in drug free medium for at least 7 days before test.
(§2) Each growth inhibition experiment must be repeated three times and results are expressed as mean±standard deviation (SD). Solvents and media were included as blank control.
In MTT assay, cells are inoculated at 5000 cells/well and are incubated overnight. Drug treatment lasts for 68 h. MTT (5 mg/ml in PBS) is added to each well (1:10 dilution). After incubation for 4 hour at 37° C., 5% CO2, 100 μl of stop solution (10% SDS-50% isobutanol-0.01N HCl) is added to each well to stop the reaction. Viable cell number is estimated by correlating to OD at 570 nm.
(§3) 1. Materials and methods: the same with I.
(§4) To evaluate the multidrug resistance reversing ability of (±)-Praeruptorin A derivatives, IC50 values of anticancer drugs in the presence and absence of cis-DMDCK, cis-DMDBK, trans-DMDCK, or trans-DMDBK at certain concentration were determined in HepG2-DR, K562-DR and KB V1 cells. The fold decrease of IC50 value of an anticancer drug in certain cell line achieved by a test compound is calculated (fold decrease=IC50 of an anti-tumor drug alone/IC50 of the anti-tumor drug in combination with the test compound) and is used for evaluating the ability of the test compound to reduce drug resistance. The larger the fold decrease value is, the stronger its ability to reverse drug resistance is. The results were average values of three repetitive tests. Verapamil (P-glycoprotein modulator) is the positive control.

HepG2-DR cells [2] = assay: Reversal of multidrug resistance (fold decrease of anticancer drug IC50), HepG2-DR
Description: as §1, §2
In SRB assay, cells are inoculated at 5000 cells/well in a 96-well microplate and incubated overnight to let cells adhere. Drug treatment lasts for 72 hours and cells are fixed for 1 hour at 4° C. with 50 μl ice-cold 15% trichloroacetic acid and washed with triple-distilled water 5 times. Cellular protein is stained by adding 50 μl of 0.4% SRB in 1% acetic acid for 10 minutes, rinsed with 1% acetic acid 5 times and air-dried. The protein-bound dye is dissolved in 100 μl per well of 10 mM Tris base (pH 10.5). The color intensity of SRB, which positively correlate to cell number in preliminary experiments, is estimated at OD 515 nm.
as §3, §4

[3] = 1 μM doxorubicin + 0.5 μM test compound
[4] = 1 μM doxorubicin + 1 μM test compound
[5] = 1 μM doxorubicin + 2 μM test compound
[6] = 1 μM doxorubicin + 4 μM test compound

## COc1ccc(C(=O)O[C@@H]2c3c(ccc4ccc(=O)oc34)OC(C)(C)[C@@H]2OC(=O)c2ccc(OC)c(OC)c2)cc1OC (racemic) [cis-DMDBK, (±)-3′-O,4′-O-bis(3,4-dimethoxybenzoyl)-cis-khellactone]
HepG2-DR cells [1]; [3]
  Cell cycle distribution, G0/G1: 35.82 ± 2.26%
  Cell cycle distribution, G2/M: 52.79 ± 5.64%
  Cell cycle distribution, S: 6.44 ± 0.77%
  Cell cycle distribution, SubG1: 2.92 ± 1.09%
HepG2-DR cells [1]; [4]
  Cell cycle distribution, G0/G1: 13.52 ± 1.36%
  Cell cycle distribution, G2/M: 73.03 ± 1.89%
  Cell cycle distribution, S: 5.85 ± 3.09%
  Cell cycle distribution, SubG1: 4.08 ± 0.81%
HepG2-DR cells [1]; [5]
  Cell cycle distribution, G0/G1: 3.74 ± 0.76%
  Cell cycle distribution, G2/M: 79.01 ± 6.01%
  Cell cycle distribution, S: 6.86 ± 2.57%
  Cell cycle distribution, SubG1: 7.13 ± 6.57%
HepG2-DR cells [1]; 4 μM alone
  Effect on cell cycle by itself: no effect
  Cell cycle distribution, G0/G1: 52.36 ± 0.98%
  Cell cycle distribution, G2/M: 34.36 ± 0.42%
  Cell cycle distribution, S: 7.66 ± 3.22%
  Cell cycle distribution, SubG1: 2.27 ± 0.49%
HepG2-DR cells [1]
  Concentration of test compound that reduced the effective doxorubicin concentration (G2/M arrest) from 50 to 1 μM: 2 µM
P-gp
  Change in P-gp (MDR1) expression level: no detectable alteration; also recorded: not observed
K562-DR cells
  Reversing parameter: fold decrease of IC50, verapamil: 105.8 ± 51.1 fold
  Reversing parameter: fold decrease of IC50 of Doxorubicin: 18.9 ± 7.9 fold
  Reversing parameter: fold decrease of IC50 of Puromycin: 21.8 ± 3.1 fold
  Reversing parameter: fold decrease of IC50 of Vinblastine: 75.6 ± 21.3 fold
HepG2-DR cells [2]; 1 μM test compound
  Reversing parameter: fold decrease of IC50 of Doxorubicin: 6.2 ± 0.7 fold
  Reversing parameter: fold decrease of IC50 of Puromycin: 4.6 ± 1.3 fold
  Reversing parameter: fold decrease of IC50 of Vinblastine: 4.8 ± 4.1 fold
HepG2-DR cells [2]; 2 μM test compound
  Reversing parameter: fold decrease of IC50 of Doxorubicin: 33.5 ± 7.5 fold
  Reversing parameter: fold decrease of IC50 of Puromycin: 15.4 ± 4.6 fold
  Reversing parameter: fold decrease of IC50 of Vinblastine: 12.4 ± 6.1 fold
HepG2-DR cells [2]; 4 μM test compound
  Reversing parameter: fold decrease of IC50 of Doxorubicin: 117.1 ± 13.8 fold
  Reversing parameter: fold decrease of IC50 of Puromycin: 74.6 ± 21.2 fold
  Reversing parameter: fold decrease of IC50 of Vinblastine: 82.1 ± 13.1 fold
HepG2-DR cells [2]; 4 μM test compound, range over vinblastine, doxorubicin, puromycin, paclitaxel
  Reduction of drug resistance to the four anti-tumor drugs: 62-117 times

## COc1ccc(C(=O)O[C@@H]2[C@@H](OC(=O)c3ccc(OC)c(OC)c3)c3c(ccc4ccc(=O)oc34)OC2(C)C)cc1OC (racemic) [trans-DMDBK, (±)-3′-O,4′-O-bis(3,4-dimethoxybenzoyl)-trans-khellactone]
HepG2-DR cells [1]; [4]
  Cell cycle distribution, G0/G1: 34.60 ± 2.58%
  Cell cycle distribution, G2/M: 49.53 ± 0.69%
  Cell cycle distribution, S: 7.61 ± 3.69%
  Cell cycle distribution, SubG1: 3.31 ± 0.89%
HepG2-DR cells [1]; [5]
  Cell cycle distribution, G0/G1: 17.56 ± 2.20%
  Cell cycle distribution, G2/M: 67.89 ± 1.19%
  Cell cycle distribution, S: 7.03 ± 2.34%
  Cell cycle distribution, SubG1: 5.30 ± 2.52%
HepG2-DR cells [1]; [6]
  Cell cycle distribution, G0/G1: 5.37 ± 1.06%
  Cell cycle distribution, G2/M: 81.56 ± 2.62%
  Cell cycle distribution, S: 4.71 ± 3.62%
  Cell cycle distribution, SubG1: 5.11 ± 2.84%
HepG2-DR cells [1]; 4 μM alone
  Effect on cell cycle by itself: no effect
  Cell cycle distribution, G0/G1: 49.57 ± 0.15%
  Cell cycle distribution, G2/M: 34.41 ± 3.70%
  Cell cycle distribution, S: 6.17 ± 1.55%
  Cell cycle distribution, SubG1: 1.33 ± 0.24%
HepG2-DR cells [1]
  Concentration of test compound that reduced the effective doxorubicin concentration (G2/M arrest) from 50 to 1 μM: 4 µM
P-gp
  Change in P-gp (MDR1) expression level: no detectable alteration; also recorded: not observed
K562-DR cells
  Reversing parameter: fold decrease of IC50, verapamil: 9.8 ± 2.1 fold
  Reversing parameter: fold decrease of IC50 of Doxorubicin: 7.0 ± 2.2 fold
  Reversing parameter: fold decrease of IC50 of Puromycin: 6.7 ± 0.4 fold
  Reversing parameter: fold decrease of IC50 of Vinblastine: 11.0 ± 0.6 fold
HepG2-DR cells [2]; 2 μM test compound
  Reversing parameter: fold decrease of IC50 of Doxorubicin: 3.8 ± 1.6 fold
  Reversing parameter: fold decrease of IC50 of Puromycin: 4.6 ± 1.4 fold
  Reversing parameter: fold decrease of IC50 of Vinblastine: 1.5 ± 0.3 fold
HepG2-DR cells [2]; 4 μM test compound
  Reversing parameter: fold decrease of IC50 of Doxorubicin: 58.2 ± 17.2 fold
  Reversing parameter: fold decrease of IC50 of Puromycin: 28.5 ± 0.2 fold
  Reversing parameter: fold decrease of IC50 of Vinblastine: 19.3 ± 10.4 fold
